According to article PMC11859928, “Design, Synthesis, and Antiproliferative Activity of Novel Indole/1,2,4-Triazole Hybrids as Tubulin Polymerization Inhibitors” (Pharmaceuticals, 2025):
Read-outs that look alike come from different tables or passages of the source.

Experiments:
[1] = test system: CCRF-CEM; assay: NCI five-dose assay; assay type: cell-based, human; settings: Homo sapiens, Leukemia
[2] = test system: SR; assay: NCI five-dose assay; assay type: cell-based, human; settings: Leukemia
[3] = test system: A549/ATCC; assay: NCI five-dose assay; assay type: cell-based, human; settings: Non-small cell lung cancer
[4] = test system: NCI-H226; assay: NCI five-dose assay; assay type: cell-based, human; settings: NCI-H226, Non-small cell lung cancer
[5] = test system: NCI-H322M; assay: NCI five-dose assay; assay type: cell-based, human; settings: Non-small cell lung cancer
[6] = test system: NCI-H460; assay: NCI five-dose assay; assay type: cell-based, human; settings: NCI-H460, Non-small cell lung cancer
[7] = test system: NCI-H522; assay: NCI five-dose assay; assay type: cell-based, human; settings: NCI-H522, Non-small cell lung cancer
[8] = test system: SW-620; assay: NCI five-dose assay; assay type: cell-based, human; settings: SW-620, Colon cancer
[9] = test system: SF-539; assay: NCI five-dose assay; assay type: cell-based, human; settings: SF-539, CNS cancer
[10] = test system: M14; assay: NCI five-dose assay; assay type: cell-based, human; settings: M14, Melanoma
[11] = test system: SK-MEL-2; assay: NCI five-dose assay; assay type: cell-based, human; settings: SK-MEL-2, Melanoma
[12] = test system: IGROV1; assay: NCI five-dose assay; assay type: cell-based, human; settings: IGROV1, Ovarian cancer
[13] = test system: OVCAR-5; assay: NCI five-dose assay; assay type: cell-based, human; settings: OVCAR-5, Ovarian cancer
[14] = test system: OVCAR-8; assay: NCI five-dose assay; assay type: cell-based, human; settings: OVCAR-8, Ovarian cancer
[15] = test system: NCI/ADR-RES; assay: NCI five-dose assay; assay type: cell-based, human; settings: Ovarian cancer
[16] = test system: SK-OV-3; assay: NCI five-dose assay; assay type: cell-based, human; settings: SK-OV-3, Ovarian cancer
[17] = test system: 786-0; assay: NCI five-dose assay; assay type: cell-based, human; settings: 786-0, Renal cancer
[18] = test system: A498; assay: NCI five-dose assay; assay type: cell-based, human; settings: A498, Renal cancer
[19] = test system: RXF393; assay: NCI five-dose assay; assay type: cell-based, human; settings: RXF393, Renal cancer
[20] = test system: SN12C; assay: NCI five-dose assay; assay type: cell-based, human; settings: Renal cancer
[21] = test system: PC-3; assay: NCI five-dose assay; assay type: cell-based, human; settings: PC-3, Prostate cancer
[22] = test system: MDA/MB-231-ATCC; assay: NCI five-dose assay; assay type: cell-based, human; settings: Breast cancer
[23] = test system: Colon cancer subpanel; assay: NCI five-dose assay, subpanel mean; assay type: cell-based, human
[24] = test system: CNS cancer subpanel; assay: NCI five-dose assay, subpanel mean; assay type: cell-based, human; settings: Homo sapiens; average sensitivity of all cell lines of the CNS cancer subpanel; read-out: GI50 Subpanel MID b
[25] = test system: Ovarian cancer subpanel; assay: NCI five-dose assay, subpanel mean; assay type: cell-based, human
[26] = test system: Prostate cancer subpanel; assay: NCI five-dose assay, subpanel mean; assay type: cell-based, human
[27] = test system: panel of 60 human tumor cell lines; assay: NCI five-dose assay, full panel; assay type: cell-based
[28] = Homo sapiens, 48 h, read-out: LC50 (the source's name)
[29] = Homo sapiens, read-out: GI50 Conc. per Cell Lines

How did the CC50 ([1]; 48 h, read-out: LC50 (the source's name)) turn out when `O/N=C(\CSc1nnc(-c2c[nH]c3ccccc23)n1-c1ccccc1)c1ccc(Br)cc1` [Compound 7i, (Z)-2-((5-(1H-Indol-3-yl)-4-phenyl-4H-1,2,4-triazol-3-yl)thio)-1-(4-bromophenyl) Ethanone Oxime] was run?
The CC50 was greater than 100 µM.

What about the GI50 ([1]; read-out: GI50 Conc. per Cell Lines) of the same molecule?
The GI50 was 2780 nM.

And the CC50 [2, 28]?
The CC50 was greater than 100 µM.

What about the “TGI Conc. per Cell Lines” value [2] of the same molecule?
Its value is greater than 100 µM.

And the CC50 [3, 28]?
Its CC50 is 31 µM.

What about the GI50 [3, 29] of the same molecule?
The GI50 was 2490 nM.

What about the “TGI Conc. per Cell Lines” value [3] of the same molecule?
The value was 6.66 µM.

What about the CC50 [4, 28] of the same molecule?
Its CC50 is 51.4 µM.

What about the GI50 [4, 29] of the same molecule?
The GI50 was 3.33 µM.

What about the “TGI Conc. per Cell Lines” value [4] of the same molecule?
Its value is 14.90 µM.

What about the CC50 [5, 28] of the same molecule?
Its CC50 is 93.3 µM.

And the GI50 [5, 29]?
Its GI50 is 4.8 µM.

And the “TGI Conc. per Cell Lines” value [5]?
Its value is 24.20 µM.

What about the CC50 [6, 28] of the same molecule?
The CC50 was 68.4 µM.

What about the GI50 [6, 29] of the same molecule?
The GI50 was 3.53 µM.

And the “TGI Conc. per Cell Lines” value [6]?
Its value is 12.90 µM.

And the CC50 [7, 28]?
Its CC50 is 61.6 µM.

And the GI50 [7, 29]?
Its GI50 is 2520 nM.

And the “TGI Conc. per Cell Lines” value [7]?
Its value is 7.70 µM.

What about the CC50 [8, 28] of the same molecule?
The CC50 was 62.1 µM.

What about the GI50 [8, 29] of the same molecule?
The GI50 was 3.28 µM.

What about the “TGI Conc. per Cell Lines” value [8] of the same molecule?
The value was 12.10 µM.

What about the CC50 [9, 28] of the same molecule?
The CC50 was 38.4 µM.

And the GI50 [9, 29]?
The GI50 was 4.04 µM.

What about the “TGI Conc. per Cell Lines” value [9] of the same molecule?
Its value is 14.20 µM.

And the CC50 [10, 28]?
Its CC50 is greater than 100 µM.

What about the GI50 [10, 29] of the same molecule?
The GI50 was 3.4 µM.

And the “TGI Conc. per Cell Lines” value [10]?
Its value is 17.60 µM.

And the CC50 [11, 28]?
The CC50 was 37.5 µM.

And the GI50 [11, 29]?
The GI50 was 3.1 µM.

What about the “TGI Conc. per Cell Lines” value [11] of the same molecule?
Its value is 10.4 µM.

And the CC50 ([12]; Homo sapiens, IGROV-1, 48 h, read-out: LC50 (the source's name))?
Its CC50 is 38.3 µM.

What about the GI50 ([12]; Homo sapiens, IGROV-1, read-out: GI50 Conc. per Cell Lines) of the same molecule?
The GI50 was 3.41 µM.

What about the “TGI Conc. per Cell Lines” value [12] of the same molecule?
Its value is 11.70 µM.

What about the LC50 ([13]; Homo sapiens, 48 h) of the same molecule?
The LC50 was 1590 nM.

What about the GI50 [13, 29] of the same molecule?
Its GI50 is 2180 nM.

And the “TGI Conc. per Cell Lines” value [13]?
Its value is 5.21 µM.

What about the CC50 [14, 28] of the same molecule?
The CC50 was greater than 100 µM.

What about the GI50 [14, 29] of the same molecule?
Its GI50 is 2450 nM.

What about the “TGI Conc. per Cell Lines” value [14] of the same molecule?
The value was 6.50 µM.

What about the LC50 ([15]; Homo sapiens, 48 h) of the same molecule?
The LC50 was 8.08 µM.

What about the GI50 [15, 29] of the same molecule?
Its GI50 is 1900 nM.

What about the “TGI Conc. per Cell Lines” value [15] of the same molecule?
The value was 3.92 µM.

And the CC50 [16, 28]?
Its CC50 is 27.4 µM.

What about the GI50 [16, 29] of the same molecule?
Its GI50 is 2530 nM.

What about the “TGI Conc. per Cell Lines” value [16] of the same molecule?
Its value is 6.03 µM.

And the “TGI Conc. per Cell Lines” value [17]?
The value was 27.00 µM.

What about the LC50 (50% lethal concentration) ([17]; Homo sapiens, 48 h) of the same molecule?
The LC50 (50% lethal concentration) was 93.4 µM.

And the GI50 [17, 29]?
The GI50 was 6.85 µM.

And the “TGI Conc. per Cell Lines” value [18]?
The value was 51.70 µM.

What about the LC50 ([18]; Homo sapiens, 48 h) of the same molecule?
Its LC50 is greater than 100 µM.

What about the GI50 [18, 29] of the same molecule?
The GI50 was 1630 nM.

What about the LC50 (concentration killing 50% of cells) ([19]; Homo sapiens, RXF 393, 48 h) of the same molecule?
The LC50 (concentration killing 50% of cells) was 7.65 µM.

What about the GI50 ([19]; Homo sapiens, RXF 393, read-out: GI50 Conc. per Cell Lines) of the same molecule?
The GI50 was 1750 nM.

And the “TGI Conc. per Cell Lines” value [19]?
Its value is 3.65 µM.

And the CC50 [20, 28]?
The CC50 was 30.1 µM.

What about the GI50 [20, 29] of the same molecule?
The GI50 was 2520 nM.

And the “TGI Conc. per Cell Lines” value [20]?
Its value is 7.97 µM.

And the CC50 [21, 28]?
Its CC50 is greater than 100 µM.

And the GI50 [21, 29]?
The GI50 was 2150 nM.

And the “TGI Conc. per Cell Lines” value [21]?
The value was 4.96 µM.

And the “TGI Conc. per Cell Lines” value [22]?
The value was 3.26 µM.

And the LC50 ([22]; Homo sapiens, 48 h)?
Its LC50 is 6.21 µM.

What about the GI50 [22, 29] of the same molecule?
The GI50 was 1710 nM.

And the “GI50 Selectivity Ratio (MID a/MID b)” value ([23]; Colon cancer subpanel)?
Its value is 0.88.

What about the GI50 ([23]; Homo sapiens, average sensitivity of all cell lines of the Colon cancer subpanel, read-out: GI50 Subpanel MID b) of the same molecule?
Its GI50 is 3.19 µM.

What about the GI50 [24] of the same molecule?
Its GI50 is 3.15 µM.

What about the GI50 ([25]; Homo sapiens, average sensitivity of all cell lines of the Ovarian cancer subpanel, read-out: GI50 Subpanel MID b) of the same molecule?
The GI50 was 2790 nM.

And the “GI50 Selectivity Ratio (MID a/MID b)” value ([25]; Ovarian cancer subpanel)?
Its value is 1.00.

What about the GI50 ([26]; Homo sapiens, average sensitivity of all cell lines of the Prostate cancer subpanel, read-out: GI50 Subpanel MID b) of the same molecule?
Its GI50 is 2100 nM.

And the “GI50 Selectivity Ratio (MID a/MID b)” value ([26]; Prostate cancer subpanel)?
Its value is 1.33.

And the GI50 ([27]; average sensitivity of all cell lines, read-out: GI50 MID a)?
Its GI50 is 2800 nM.

And the GI50 ([27]; most of the tested cell lines across nine subpanels, read-out: GI50 values, range across nine subpanels)?
The GI50 was 2100 to 3230 nM.
